The structures appear in SMILES notation. Like-named read-outs stand apart in the source and are kept apart here.

The values below come from patent US20250188040A1, “PHARMACEUTICAL COMPOSITIONS COMPRISING WRN HELICASE INHIBITORS” (Vividion Therapeutics, Inc., priority 2022, published 2025).

Test [1] relates to SW480 cells. Kind of test: Cell growth assay (CellTiter-Glo 2.0), SW480 MSS cell line. Conditions: Homo sapiens, SW480, 120 h, read-out: Cell Growth Inhibition GI50 SW480. (ATP-based viability assays read luminescence as a measure of living cells.)
Test [2] deals with HCT 116 cells. Nature of the test: Cell growth assay (CellTiter-Glo 2.0), HCT 116 MSI-H cell line. Conditions: Homo sapiens, HCT-116, 120 h, read-out: Cell Growth Inhibition GI50 HCT-116.
Test [3] deals with hWRN(519-1227)_C-H3CV-GFP-10His (Homo sapiens, UniProt Q14191). Kind of test: Helicase Assay for WRN Inhibition (ATP-dependent, fluorescence based).
Protocol: Effects of compounds on WRN helicase activity were assessed with the Helicase Assay for WRN Inhibition. This is an ATP-dependent (inclusion of ATP is important and is required for this assay) fluorescence based assay using recombinant WRN and a fluorogenic DNA substrate.
WRN activity was normalized to signal from wells without WRN protein (background, 0% activity) and wells with protein treated only with DMSO (positive control, 10000 activity). For each compound the potency of inhibition (IC50) was determiined using Graphpad Prism.
In test [4] the target is T1, WRN C727 (Homo sapiens, UniProt Q14191).
T1 construct: endogenous in cells; host or cells: OCI-AML2
Nature of the test: Target engagement, in situ (cell), OCI-AML2. In kind it is cell-based. Conditions: OCI-AML2 cells, read-out: OCI-AML2 WRN C727 TE50 in situ (cell). The protocol: Cells or cell lysates were treated with a dose response of compound followed by probe treatment, which labels solvent exposed cysteines. Proteins were enzymatically digested with trypsin and probe-labelled peptides were enriched with streptavidin. Isolated peptides were then separated using reversed-phase liquid chromatography on a C18 column (Dionex Ultimated 3000 nano-LC, Thermo). Peptides were analyzed by parallel reaction monitoring mass spectrometry (Exploris 120, Thermo).
Target engagement (%) is calculated relative to DMSO treated control samples.

For test [5], the target named is T1, WRN C727. Nature of the test: Target engagement, in vitro (lysate), OCI-AML2. Conditions: read-out: OCI-AML2 WRN C727 TE50 in vitro (lysate). In kind it is binding. The procedure, abridged:
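OCI-AML2 intact cells or lysates dosed with compound, then a cysteine-reactive probe; after trypsin digestion, probe-labelled peptides were streptavidin-enriched and quantified by nano-LC parallel reaction monitoring MS. Engagement (%) relative to DMSO controls.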

[6] abbreviates: WRN Helicase IC50, 30 min preincubation with ATP, 30 min reaction.

hWRN(519-1227)_C-H3CV-GFP-10His, sequence (Q14191 519-1227): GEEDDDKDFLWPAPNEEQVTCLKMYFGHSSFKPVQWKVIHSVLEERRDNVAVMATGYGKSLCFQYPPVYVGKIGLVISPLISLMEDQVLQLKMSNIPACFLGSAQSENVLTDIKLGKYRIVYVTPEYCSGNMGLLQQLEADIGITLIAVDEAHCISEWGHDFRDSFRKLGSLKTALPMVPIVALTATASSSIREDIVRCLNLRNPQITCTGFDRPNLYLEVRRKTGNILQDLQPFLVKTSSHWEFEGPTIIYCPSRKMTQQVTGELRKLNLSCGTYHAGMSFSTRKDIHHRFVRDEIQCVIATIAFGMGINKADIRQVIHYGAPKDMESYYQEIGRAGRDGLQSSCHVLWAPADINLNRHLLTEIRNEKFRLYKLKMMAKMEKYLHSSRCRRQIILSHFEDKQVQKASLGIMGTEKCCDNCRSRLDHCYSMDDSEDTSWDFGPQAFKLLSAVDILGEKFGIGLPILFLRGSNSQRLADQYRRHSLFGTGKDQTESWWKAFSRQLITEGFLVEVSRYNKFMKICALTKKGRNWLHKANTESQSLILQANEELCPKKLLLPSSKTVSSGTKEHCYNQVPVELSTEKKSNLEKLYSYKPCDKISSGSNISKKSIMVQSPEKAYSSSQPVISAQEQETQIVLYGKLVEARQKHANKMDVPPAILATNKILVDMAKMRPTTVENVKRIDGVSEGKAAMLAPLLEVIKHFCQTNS
T1 sequence (Q14191 whole entry): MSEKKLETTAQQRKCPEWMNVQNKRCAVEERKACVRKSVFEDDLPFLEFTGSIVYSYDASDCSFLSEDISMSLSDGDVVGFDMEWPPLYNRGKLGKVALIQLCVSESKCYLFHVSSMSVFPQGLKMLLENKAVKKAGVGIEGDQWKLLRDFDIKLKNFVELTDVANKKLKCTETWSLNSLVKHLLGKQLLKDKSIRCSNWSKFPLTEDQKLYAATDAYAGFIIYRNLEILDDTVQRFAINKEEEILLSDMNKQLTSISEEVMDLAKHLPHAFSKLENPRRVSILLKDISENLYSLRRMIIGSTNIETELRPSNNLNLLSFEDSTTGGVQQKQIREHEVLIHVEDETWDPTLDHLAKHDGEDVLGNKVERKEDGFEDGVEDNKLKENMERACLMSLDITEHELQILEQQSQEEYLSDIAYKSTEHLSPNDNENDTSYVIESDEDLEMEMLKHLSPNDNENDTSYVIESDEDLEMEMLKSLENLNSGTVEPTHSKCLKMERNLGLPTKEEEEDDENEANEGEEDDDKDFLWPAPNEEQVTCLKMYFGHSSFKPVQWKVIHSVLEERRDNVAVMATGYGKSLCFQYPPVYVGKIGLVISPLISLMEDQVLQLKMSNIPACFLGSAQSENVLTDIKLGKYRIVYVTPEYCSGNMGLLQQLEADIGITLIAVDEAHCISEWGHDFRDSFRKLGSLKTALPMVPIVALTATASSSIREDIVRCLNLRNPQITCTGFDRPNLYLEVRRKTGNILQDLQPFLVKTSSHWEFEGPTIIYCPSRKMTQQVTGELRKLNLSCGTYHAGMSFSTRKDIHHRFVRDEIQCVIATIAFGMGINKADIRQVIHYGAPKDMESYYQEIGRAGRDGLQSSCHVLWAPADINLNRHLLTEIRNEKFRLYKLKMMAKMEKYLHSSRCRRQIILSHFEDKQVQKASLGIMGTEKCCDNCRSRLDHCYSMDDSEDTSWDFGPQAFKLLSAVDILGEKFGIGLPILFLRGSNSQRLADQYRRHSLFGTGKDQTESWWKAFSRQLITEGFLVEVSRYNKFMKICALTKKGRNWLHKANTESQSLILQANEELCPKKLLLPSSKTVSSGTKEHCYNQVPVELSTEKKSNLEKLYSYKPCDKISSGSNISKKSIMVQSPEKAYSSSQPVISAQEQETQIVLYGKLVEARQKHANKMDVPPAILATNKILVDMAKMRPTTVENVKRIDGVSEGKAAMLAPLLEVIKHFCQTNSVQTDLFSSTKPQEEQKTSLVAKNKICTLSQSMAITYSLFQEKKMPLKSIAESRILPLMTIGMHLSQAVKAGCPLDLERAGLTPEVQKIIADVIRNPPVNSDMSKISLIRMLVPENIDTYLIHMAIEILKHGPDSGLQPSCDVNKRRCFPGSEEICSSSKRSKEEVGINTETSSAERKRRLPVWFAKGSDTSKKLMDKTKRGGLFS

As to `C[C@@H](/C=C/S(C)(=O)=O)NC(=O)c1cnc(C2CC2)nc1Oc1ccccc1` [Example 18, (S,E)-2-cyclopropyl-N-(4-(methylsulfonyl)but-3-en-2-yl)-4-phenoxypyrimidine-5-carboxamide], the results for the concentration for 50% growth inhibition (GI50) in test [1] and in test [2] were above 10 µM and 0.38 µM, respectively. The IC50 in test [3] (setting [6]) stood at 1.1 µM; in test [4], 1.53 µM; in test [5] it was 6.84 µM.
For the compound `CC(C)(C)c1ncc(C(=O)N[C@H](/C=C/S(C)(=O)=O)C2CC2)c(Oc2ccccc2)n1` [Example 58, (S,E)-2-(tert-butyl)-N-(1-cyclopropyl-3-(methylsulfonyl)allyl)-4-phenoxypyrimidine-5-carboxamide], the GI50 in test [1] came to 8.73 µM; in test [2], 0.0235 µM. Besides, the figures for the IC50 in test [3] (setting [6]), in test [4] and in test [5] were 0.0577 µM, 0.016 µM and 0.448 µM, respectively.
On the same counts, the results for `C[C@@H](/C=C/S(C)(=O)=O)NC(=O)c1cnc(C2CCCCC2)nc1Oc1ccccc1` [Example 77, (S,E)-2-cyclohexyl-N-(4-(methylsulfonyl)but-3-en-2-yl)-4-phenoxypyrimidine-5-carboxamide] are above 5 µM, 0.43 µM, 1.5 µM, 1.14 µM and 26 µM.
`C=C(C#N)CNC(=O)c1cnc(C(F)(F)C2CC2)nc1Oc1ccccc1` [Example 272, N-(2-cyanoallyl)-2-(cyclopropyldifluoromethyl)-4-phenoxypyrimidine-5-carboxamide]: the values for the GI50 in test [1] and in test [2] were 7.8 µM and 0.21 µM, respectively. Also, the IC50 in test [3] turned out to be 0.38 µM; in test [4], 3.96 µM; in test [5], 8.28 µM.
Consider `CS(=O)(=O)/C=C/[C@@H](NC(=O)c1cnc(C2(C(F)(F)F)CC2)nc1Oc1ccccc1)C1CC1` [Example 102, (S,E)-N-(1-cyclopropyl-3-(methylsulfonyl)allyl)-4-phenoxy-2-(1-(trifluoromethyl)cyclopropyl)pyrimidine-5-carboxamide], for which the 50% growth inhibitory concentration (GI50) in test [1] was found to be 4.14 µM; in test [2], 0.0818 µM. Moreover, the IC50 in test [3] (setting [6]) stood at 0.13 µM; in test [4], 0.16 µM; in test [5], 0.53 µM.
Consider `CCc1ncc(C(=O)NC/C=C/S(C)(=O)=O)c(Oc2ccccc2)n1` [Example 12, (E)-2-ethyl-N-(3-(methylsulfonyl)allyl)-4-phenoxypyrimidine-5-carboxamide], for which the GI50 is above 10 µM in test [1] and 8.9 µM in test [2]. The IC50 is 14 µM in test [3] (setting [6]), 50 µM in test [4] and above 100 µM in test [5].
In the same order, the values of `CC(C)c1ncc(C(=O)NC/C=C/S(C)(=O)=O)c(Oc2ccccc2)n1` [Example 14, (E)-2-isopropyl-N-(3-(methylsulfonyl)allyl)-4-phenoxypyrimidine-5-carboxamide] are above 10 µM, 5.4 µM, 10 µM, 2.09 µM and 20 µM.
On the same counts, the results for `C[C@@H](/C=C/S(C)(=O)=O)NC(=O)c1cc(C#N)c(C2CCCC2)nc1Oc1ccccc1` [Example 163, (S,E)-5-cyano-6-cyclopentyl-N-(4-(methylsulfonyl)but-3-en-2-yl)-2-phenoxynicotinamide] are 3.9 µM, 0.4 µM, 0.74 µM, 0.56 µM and 1.76 µM.
In the same order, the values of `C[C@@H](/C=C/S(C)(=O)=O)NC(=O)c1cnc(CC2CC2)nc1Oc1ccccc1` [Example 35, (S,E)-2-(cyclopropylmethyl)-N-(4-(methylsulfonyl)but-3-en-2-yl)-4-phenoxypyrimidine-5-carboxamide] are 18.1 µM, 0.171 µM, 1.01 µM, 0.29 µM and 5 µM.
In the case of `CS(=O)(=O)/C=C/[C@@H](NC(=O)c1cnc(C2(F)CC2)nc1Oc1ccccc1)C1CC1` [Example 100, (S,E)-N-(1-cyclopropyl-3-(methylsulfonyl)allyl)-2-(1-fluorocyclopropyl)-4-phenoxypyrimidine-5-carboxamide], the results for the GI50 in test [1] and in test [2] were 24.4 µM and 0.066 µM, respectively. Moreover, the IC50 turned out to be 0.174 µM in test [3] (setting [6]), 0.15 µM in test [4] and 0.853 µM in test [5].

In general, GI50 refers to the concentration giving 50% growth inhibition.
